{"source": "patent US5039662A", "about": "“Peptide with anti-metastasis activity” (Monsanto, priority 1989, dated 1991)", "key": {"B16F10 melanoma cells": {"test_system": "B16F10 melanoma cells", "test": "Lung tumor colonization assay", "format": "in vivo, C57BL/6 female mice", "settings": "B16F10 cells (5×10^5) mixed with 0.1 mL peptide at 5 mg/mL, tail vein injection, lungs counted after three weeks, FIG. 2", "description": "B16F10 melanoma cells, obtained from I. J. Fidler, M. D., Anderson Hospital, Houston, Tex., are propagated under standard culture conditions. The lung tumor colonization assay is carried out as described in Fidler, I. J., Nature (London) (New Biol) 242:148 (1973). Peptides are dissolved at 5 mg/mL in PBS and are filter-sterilized. The suspension of B16F10 cells (5×10^5) in 0.1 mL of DMEM is mixed with 0.1 mL of the peptide, (or 0.1 ml PBS in Control) incubated for 5 minutes at room temperature, and then injected into the tail vein of syngeneic C57BL/6 female mice (Jackson Labs., Bar Habor, Me.) at 6 weeks of age. Each treatment and control group consists of eight mice. Three weeks after the injections, the mice are killed and the number of pulmonary tumors on the surface of the lungs counted."}, "HT-1080 cells": {"test_system": "HT-1080 cells", "test": "In vitro cell attachment assay", "format": "cell-based", "settings": "HT-1080 human fibrosarcoma cells; attachment to peptide-coated wells / inhibition of attachment to laminin; FIG. 1", "description": "HT-1080 cells from a human fibrosarcoma (Rasheed, S. et al., Cancer (Philadelphia) 33:1027 (1974) are maintained in Dulbecco's modified Eagle's medium (DMEM) supplemented with 10% fetal calf serum. After the cells are grown to 80% confluency, they are washed with 0.02M phosphate buffer, pH 7.4, without CA ^30 2 and Mg^30 2 and detached with a solution of 0.025% trypsin plus 0.025% ethylenediaminetetraacetic acid (EDTA; GIBCO). The cells are then pelleted by lowspeed centrifugation and resuspended in Eagle's minimal essential medium (EMEM) containing 0.02% bovine serum albumin (BSA, Sigma Chemical Co., St. Louis, Mo.). Cell attachment assays are performed as described in Klebe, R. J. Nature (London) 250:248 (1974), on tissue culture plastic substrates by using 16-mm Falcon tissue culture wells (Fisher Scientific Co., Pittsburg, Pa.) incubated with various peptides or with laminin in 1 mL of EMEM containing 0.02% BSA for 1 or 2 hours at 37° C. Cells (10^5 in 0.1 1 mL) are added to the wells, and the solution is incubated for an additional 1 hour at 37° C. in 95% air and 5% CO2. Subsequently, the wells are rinsed 3 times with 1 mL of phosphate-buffered saline (PBS) to remove unattached cells. Attached cells are trypsinized and counted electronically (Coulter, ZBI). […]"}}, "note": "Peptide text beside a SMILES is read from it."}
{"smiles": "CC[C@H](C)[C@H](NC(=O)[C@H](Cc1ccc(O)cc1)NC(C)=O)C(=O)NCC(=O)N[C@@H](CO)C(=O)N[C@@H](CCCNC(=N)N)C(N)=O", "note": "[AcYIGSR-NH2] (Ac-YIGSR-NH2)", "values": [{"measurement": "antimetastatic effectiveness (number of pulmonary tumors on the surface of the lungs) relative to YIGSR-NH2", "setting": "B16F10 melanoma cells", "value": "at least twice as effective as YIGSR-NH2"}, {"measurement": "antimetastatic effectiveness (number of pulmonary tumors on the surface of the lungs) relative to YIGSR-NH2", "setting": "B16F10 melanoma cells; listed as peptide of the invention", "value": "at least twice as effective as linear YIGSR-NH2"}, {"measurement": "cell adhesion activity", "setting": "HT-1080 cells", "value": "having cell adhesion activity"}]}
